We go through 20 compounds from patent US11702414B2, “Thiadiazole IRAK4 inhibitors” (Gilead Sciences, Inc., priority 2018, dated 2023).

Sequence of IRAK4 enzyme (Q9NWZ3 whole entry): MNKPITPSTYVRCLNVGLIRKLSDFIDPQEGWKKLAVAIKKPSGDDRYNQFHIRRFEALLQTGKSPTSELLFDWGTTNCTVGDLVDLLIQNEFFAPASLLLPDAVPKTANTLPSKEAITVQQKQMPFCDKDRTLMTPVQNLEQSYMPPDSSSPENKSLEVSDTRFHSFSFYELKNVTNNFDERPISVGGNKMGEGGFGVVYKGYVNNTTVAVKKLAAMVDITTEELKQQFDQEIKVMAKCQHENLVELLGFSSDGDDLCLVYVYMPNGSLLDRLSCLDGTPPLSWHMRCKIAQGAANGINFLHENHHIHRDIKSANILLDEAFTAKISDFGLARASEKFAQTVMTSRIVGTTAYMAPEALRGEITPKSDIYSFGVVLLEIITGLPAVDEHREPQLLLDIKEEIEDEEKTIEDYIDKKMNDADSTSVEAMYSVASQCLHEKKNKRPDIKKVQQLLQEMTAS

The test system of one experiment is TNFα. The experiment can be described thus: IRAK4 Monocyte TNFα Cell Based Assay. Set-up: species or system human. The note with it: Homo sapiens, Monocyte, human monocytes, LPS-stimulated; compounds 1-32; read-out: EC50 TNF. The method, then: IRAK4 Monocyte TNFα Cell Based Assay Procedure:
The cell suspension was then plated at a density of 5,000 cells/well onto black 384 well Greiner clear bottom plates. Plates were pre-spotted with test compounds and serially diluted in DMSO where 40 nL/well were delivered using the Echo 550 acoustic liquid dispenser (Labcyte®) for a final DMSO concentration of 0.1%. Plated cells were treated with compound for 1 hour at 37° C. Cells were then stimulated with 50 pg/ml of LPS (Sigma) excluding outside columns of plate used for unstimulated cell control wells. Cells were incubated for an additional 4 hours at 37° C. Cells were then spun out of the media and 5μl of sample were taken and analyzed for total TNFα content using the TR-FRET Human TNFα detection system (CisBio). This system utilizes two labeled antibodies (cryptate and XL665) that bind to two different epitopes of the TNFα molecule and produce FRET signal proportional to the concentration of TNFα in the sample. Detection antibodies are mixed 50:50 and 5 μL were dispensed into each well. Plates were covered with clear seals and incubated at room temp overnight. […] Percent of control was calculated as follows: % Control=100×(RatioSample−Ratio0% Stimulation)/(Ratio100% Stimulation−Ratio0% Stimulation) where unstimulated cells (0% stimulation) were the negative control and stimulated cells (100% stimulation) were used as the positive control.
On to `CC(=O)N[C@H]1CC[C@H](c2nnc(-c3cnc(-c4ccc5cc(C#N)cnn45)cc3N[C@H]3CC[C@H](c4nnc(C(F)F)o4)CC3)s2)CC1` [Example 2], for which the EC50 is 8 nM. For the compound `CC(=O)N[C@H]1CC[C@H](c2nnc(-c3cnc(-c4ccc5cc(C#N)cnn45)cc3NCC#N)s2)CC1` [Example 20, N-((1r,4r)-4-(5-(4-((cyanomethyl)amino)-6-(3-cyanopyrrolo[1,2-b]pyridazin-7-yl)pyridin-3-yl)-1,3,4-thiadiazol-2-yl)cyclohexyl)acetamide], the EC50 came out at 6 nM. As for `CC(=O)N[C@H]1CC[C@H](c2nnc(-c3cnc(-c4ccc5cc(C#N)cnn45)cc3NC3COC3)s2)CC1` [Example 21, N-((1r,4r)-4-(5-(6-(3-cyanopyrrolo[1,2-b]pyridazin-7-yl)-4-(oxetan-3-ylamino)pyridin-3-yl)-1,3,4-thiadiazol-2-yl)cyclohexyl)acetamide], the EC50 was 10 nM.

For `COC(=O)NC[C@H]1C[C@H](Nc2cc(-c3ccc4cc(C#N)cnn34)ncc2-c2nnc([C@H]3CC[C@H](NC(C)=O)CC3)s2)C1` [Example 23, methyl (((1R,3r)-3-((5-(5-((1r,4R)-4-acetamidocyclohexyl)-1,3,4-thiadiazol-2-yl)-2-(3-cyanopyrrolo[1,2-b]pyridazin-7-yl)pyridin-4-yl)amino)cyclobutyl)methyl)carbamate], the EC50 was 6 nM.

Still in this experiment, the particulars now being: Homo sapiens, Monocyte, human monocytes; second part of Table 2 (compounds 33-343); unit inferred; read-out: EC50MONO TNF HTRF.
Regarding `CC(=O)N[C@@H]1CCN(c2nnc(-c3cnc(-c4ccc5cc(C#N)cnn45)cc3NC(C)C)s2)C[C@@H]1O` [Example 63, N-((3S,4R)-1-(5-(6-(3-cyanopyrrolo[1,2-b]pyridazin-7-yl)-4-(isopropylamino)pyridin-3-yl)-1,3,4-thiadiazol-2-yl)-3-hydroxypiperidin-4-yl)acetamide], the EC50 worked out at 13.8 nM.

The same experiment, now with this note: Homo sapiens, Monocyte, read-out: EC50MONO TNF HTRF.
Consider `CC(C)Nc1cc(-c2ccc3cc(C#N)cnn23)ncc1-c1nnc(N2CC3CC(C2)N3C(=O)C2CCN(C)CC2)s1` [Example 117, 7-(4-(isopropylamino)-5-(5-(6-(1-methylpiperidine-4-carbonyl)-3,6-diazabicyclo[3.1.1]heptan-3-yl)-1,3,4-thiadiazol-2-yl)pyridin-2-yl)pyrrolo[1,2-b]pyridazine-3-carbonitrile], for which the EC50 came out at 11.1 nM.

Staying with this experiment, now noted: human monocytes; second part of Table 2 (compounds 33-343); unit inferred; read-out: EC50MONO TNF HTRF.
Turning to `CC(C)Nc1cc(-c2ccc3cc(C#N)cnn23)ncc1-c1nnc(C23CCC(O)(CC2)CC3)s1` [Example 89, 7-(5-(5-(4-hydroxybicyclo[2.2.2]octan-l-yl)-1,3,4-thiadiazol-2-yl)-4-(isopropylamino)pyridin-2-yl)pyrrolo[1,2-b]pyridazine-3-carbonitrile], the EC50 stood at 11.3 nM.

`C[C@H](C#N)Nc1cc(-c2ccc3cc(C#N)cnn23)ncc1-c1nnc(N2C[C@H]3CC[C@@H](C2)[C@@H]3NC(=O)C2CC2)s1` [Example 148, N-((1R,5S,8S)-3-(5-(4-(((R)-1-cyanoethyl)amino)-6-(3-cyanopyrrolo[1,2-b]pyridazin-7-yl)pyridin-3-yl)-1,3,4-thiadiazol-2-yl)-3-azabicyclo[3.2.1]octan-8-yl)cyclopropanecarboxamide]: the EC50 stood at 1.4 nM. On to `CC(C)Nc1cc(-c2ccc3cc(C#N)cnn23)ncc1-c1nnc(N2CC[C@@H](O)C(F)(F)C2)s1` [Example 162, (R)-7-(5-(5-(3,3-difluoro-4-hydroxypiperidin-l-yl)-1,3,4-thiadiazol-2-yl)-4-(isopropylamino)pyridin-2-yl)pyrrolo[1,2-b]pyridazine-3-carbonitrile], for which the EC50 was found to be 26.5 nM. With `C[C@H](C#N)Nc1cc(-c2ccc3cc(C#N)cnn23)ncc1-c1nnc(N2CC3CC(C2)O3)s1` [Example 178, 7-(5-(5-(6-oxa-3-azabicyclo[3.1.1]heptan-3-yl)-l,3,4-thiadiazol-2-yl)-4-(((R)-1-cyanoethyl)amino)pyridin-2-yl)pyrrolo[1,2-b]pyridazine-3-carbonitrile], the EC50 was 4.9 nM. On to `CC(=O)N[C@@H]1CCN(c2nnc(-c3cnc(-c4ccc5cc(C#N)cnn45)cc3NC3COC3)s2)CC1(F)F` [Example 183, (R)-N-(1-(5-(6-(3-cyanopyrrolo[l,2-b]pyridazin-7-yl)-4-(oxetan-3-ylamino)pyridin-3-yl)-1,3,4-thiadiazol-2-yl)-3,3-difluoropiperidin-4-yl)acetamide], for which the EC50 amounted to 8.8 nM.

Take `CC1(O)CCN(c2nnc(-c3cnc(-c4ccc5cc(C#N)cnn45)cc3NC3COC3)s2)CC1` [Example 187, 7-(5-(5-(4-hydroxy-4-methylpiperidin-1-yl)-1,3,4-thiadiazol-2-yl)-4-(oxetan-3-ylamino)pyridin-2-yl)pyirolo[1,2-b]pyridazine-3-carbonitrile]: the EC50 is 10.8 nM. On to `CC1(O)CCN(c2nnc(-c3cnc(-c4ccc5cc(C#N)cnn45)cc3NC3CCOCC3)s2)CC1` [Example 188, 7-(5-(5-(4-hydroxy-4-methylpiperidin-l-yl)-1,3,4-thiadiazol-2-yl)-4-((tetrahydro-2H-pyran-4-yl)amino)pyridin-2-yl)pyrrolo[1,2-b]pyridazine-3-carbonitrile], for which the EC50 amounted to 7.6 nM. The same measure, in the same setting: the same measure for `CC(C)Nc1cc(-c2ccc3cc(C#N)cnn23)ncc1-c1nnc(N2CC[C@@](C)(O)[C@H](F)C2)s1` [Example 191, 7-(5-(5-((3R,$R)-3-fluoro-4-hydroxy-4-methylpiperidin-1-yl)-1,3,4-thiadiazol-2-yl)-4-(isopropylamino)pyridin-2-yl)pyrrolo[1,2-b]pyridazine-3-carbonitrile]: 22.9 nM. Consider `C[C@]1(O)CCN(c2nnc(-c3cnc(-c4ccc5cc(C#N)cnn45)cc3NC3CCOCC3)s2)C[C@@H]1F` [Example 204, 7-(5-(5-((3S,4S)-3-fluoro-4-hydroxy-4-methylpiperidin-l-yl)-1,3,4-thiadiazol-2-yl)-4-((tetrahydro-2H-pyran-4-yl)amino)pyridin-2-yl)pyrrolo[1,2-b]pyridazine-3-carbonitrile], for which the EC50 was 3.5 nM. The same measure, in the same setting: the same measure for `CC(C)Nc1cc(-c2ccc3cc(C#N)cnn23)ncc1-c1nnc(CCN)s1` [Example 212, 7-(5-(5-(2-aminoethyl)-l,3,4-thiadiazol-2-yl)-4-(isopropylamino)pyridin-2-yl)pyrrolo[1,2-b]pyridazine-3-carbonitrile]: 305 nM; for `CC(C)Nc1cc(-c2ccc3cc(C#N)cnn23)ncc1-c1nnc(C(=O)N2CC[C@H](CO)C2)s1` [Example 221, (S)-7-(5-(5-(3-(hydroxymethyl)pyrrolidine-l-carbonyl)-1,3,4-thiadiazol-2-yl)-4-(isopropylamino)pyridin-2-yl)pyrrolo[1,2-b]pyridazine-3-carbonitrile]: 2320 nM.

A further experiment has as its target IRAK4 enzyme (Homo sapiens (Human), UniProt Q9NWZ3). The experiment in a line: IRAK4 Biochemical Assay (TR-FRET, STK1 KinEASE). The note with it: second part of Table 2 (compounds 33-343); unit inferred; read-out: IC50 IRAK4-HTBS. The method, then:
IRAK4 enzyme (Carna Biosciences, Chuo-ku, Kobe, Japan) activity was measured by detecting phosphorylated peptide substrate formation using an antibody against the phosphorylated peptide substrate. This is a time-resolved fluorescence resonance energy transfer (TR-FRET) immunoassay, based on the STK1 KinEASE Assay (Cisbio, Bedford, Mass.). The assay was designed as a simple two-step, endpoint assay (a 5 μl enzyme reaction followed by 5 μl stop and detect Solution) performed in ProxiPlate-384 Plus plates (Perkin Elmer, Waltham, Mass.). […] Compounds diluted in DMSO were spotted into 384 well plates using a Labcyte® Echo 550 Liquid Handling System prior to addition of IRAK4 enzyme and peptide substrate. Reaction solutions were delivered using a Multi-Flo (Bio-Tek Instruments). The enzyme and peptide solution was incubated with compound for 15 minutes at room temp before the reaction was initiated by the addition of ATP. The standard 5 μl reaction mixture contained 500 μM ATP, 2 μM peptide (STK1 Peptide), 0.75 nM of IRAK4 in reaction buffer (50 mM HEPES, pH 7.0, 0.02% NaN3, 0.01% BSA, 0.1 mM Orthovanadate, 5 mM MgCl2, 0.025% NP-40, 1 mM DTT). After 120 min of incubation at room temperature, 5 μl of Stop and Detect Solution (1:100 Cryptate labeled anti-phosphorylated peptide antibody solution and 125 nM Tracer in a 50 mM HEPES pH 7.0 detection buffer containing sufficient EDTA) was added. The plate was then further incubated for 60 minutes at room temperature and read on Envision 2103 Multilabeled reader (PerkinElmer) with excitation/emission/FRET emission at 340 nm/615 nm/665 nm, respectively. Fluorescence intensities at 615 nm and 665 nm emission wavelengths were expressed as a ratio (665 nm/615 nm). Percentage of inhibition was calculated as below: % Inhibition=100×(RatioSample−Ratio0% Inhibition)/(Ratio100% Inhibition−Ratio0% Inhibition)
The 0% inhibition value comes from control wells lacking inhibitor.
Background: TR-FRET usually uses a lanthanide donor and a delayed reading to cut background.
For `CC(=O)NC1CCC(F)(c2nnc(-c3cnc(-c4ccc5cc(C#N)cnn45)cc3NC3COC3)s2)CC1` (single isomer, unassigned) [Example 195, N-(4-(5-(6-(3-cyanopyrrolo[1,2-b]pyridazin-7-yl)-4-(oxetan-3-ylamino)pyridin-3-yl)-1,3,4-thiadiazol-2-yl)-4-fluorocyclohexyl)acetamide], the IC50 (commonly the concentration needed to halve the response being measured) amounted to 1.09 nM. As to `CC(=O)NC1CCC(F)(c2nnc(-c3cnc(-c4ccc5cc(C#N)cnn45)cc3NC3COC3)s2)CC1` (single isomer, unassigned) [Example 196, N-(4-(5-(6-(3-cyanopyrrolo[1,2-b]pyridazin-7-yl)-4-(oxetan-3-ylamino)pyridin-3-yl)-1,3,4-thiadiazol-2-yl)-4-fluorocyclohexyl)acetamide], the IC50 amounted to 1.62 nM. As for `CC1(O)CCC(c2nnc(-c3cnc(-c4ccc5cc(C#N)cnn45)cc3NC3COC3)s2)CC1` (single isomer, unassigned) [Example 206, 7-(5-(5-(4-hydroxy-4-methylcyclohexyl)-1,3,4-thiadiazol-2-yl)-4-(oxetan-3-ylamino)pyridin-2-yl)pyrrolo[1,2-b]pyridazine-3-carbonitrile], the IC50 came to 0.56 nM.
